Data from patent publication US20090312373A1, “METHODS FOR THE TREATMENT OF CANCER USING PIPERLONGUMINE AND PIPERLONGUMINE ANALOGS” (The General Hospital Corporation, priority 2008, published 2009).

Columns and labels:
[1] = tested on: CDIP; test: CDIP expression in HCT116 cells; format: cell-based, human; conditions: 5 μM and 10 μM
Experimental: U2OS cells and EJ cells were exposed to piperlongumine (10 μM) and aliquots of the cells were taken at 6 and 12 hours and lysed to determine the level of Twist expression. […] HCT116 cells (p53-wt cells) were exposed to piperlongumine and aliquots of the cells were taken at 6 and 12 hours and lysed to determine the level of CDIP expression. […] U2OS cells (p53-wt cells) and EJ cells (non-functional p53) were exposed to various concentrations of piperlongumine (piper) and aliquots of the cells were lysed to determine the level of survival protein expression.

[2] = tested on: CDIP promoter containing p53 binding site; test: CDIP promoter/p53 responsive site luciferase reporter screen; format: cell-based, human
Description: We screened a small molecule library of biologically active compounds using a Luciferase reporter gene construct fused with CDIP (Cell Death Involved p53 target) promoter/p53 responsive site as a read-out assay. p53 transcriptional activators were identified from screening the diversity set of the biologically active library using U2OS human cancer cells expressing the p53-responsive reporter. Briefly, a reporter construct was created that included the CDIP promoter operatively linked to the luc2 luciferase reporter gene. We stably expressed a human p53 reporter, luciferase2/Puro+CDIP promoter, which carries the firefly luciferase gene under the control of p53-responsive elements of CDIP promoter, in U2OS cells. Stable cell lines were produced that expressed the reporter construct, and the cells were plated in 384 well plates at ˜10,000 cells per well. Test compounds were added to the plated cells at two replicates per compound, and the cells were incubated with the compounds for 24 hours. The data were analyzed using Spotfire. The initial screen identified several compounds that activated p53-responsive reporter expression during 48 hours.

[3] = tested on: human cancer cell lines; test: SRB (Sulforhodamine B) staining assay in human cancer cell lines; format: cell-based
Experimental: The tumor growth inhibitory effect of piperlongumine was evaluated in a variety of human cancer cell lines. Cells were grown in ˜50-70% confluency and treated with piperlongumine and known anti-cancer agents at various concentrations (0.1-30 μM) and analyzed for cell death or viability by SRB (Sulforhodamine B) staining assay. The SRB assay is a well established assay that is used for the detection of cell death, viability or proliferation in drug screening.

[4] = tested on: EJ bladder carcinoma and U2OS osteosarcoma cell lines; test: DNA damage in EJ bladder carcinoma and U2OS osteosarcoma cell lines; format: cell-based, human
Description: The conditions and time of exposure are indicated in the legend of the figure.

[5] = tested on: EJ Human Bladder Carcinoma Cells; test: Angiogenesis in EJ bladder carcinoma tumor bearing nude mice; format: in vivo, mouse; conditions: 1.5 mg/kg i.p. every two days for 2.5 weeks
Experimental: EJ Human Bladder Carcinoma Cells (10^6 Cells) were Subcutaneously Transplanted into the back of the skin of immunodeficient nude mice (total 16 mice). After 2 weeks (tumor sizes of approximately 8-10 mm), piperlongumine (SP2007; 1.5 mg/kg) or vehicle (10% DMSO) was injected into tumor bearing mice by i.p. every two days for 2.5 weeks. The effect of piperlongumine was evaluated by opening the tumor site.

[6] = tested on: lung cancer tumors; test: Lung tumor model in mice; format: in vivo, mouse
[7] = tested on: mouse B16-F10 melanoma cells; test: B16-F10 mouse melanoma in B6 wild type mice; format: in vivo; conditions: 28 ug i.p. every 48 hours for 12 days (total 1.2 mg/kg); compared to DMSO
Experimental: We tested the effectiveness of piperlongumine in wild type mice using mouse B16-F10 melanoma cells. A total 2×10^6 cells were implanted subcutaneously on opposite site flanks in each of 12 B6 wild type mice in each group. When tumor masses grew to ˜5-10 mm in diameter, piperlongumine was administered intraperitoneally (28 ug per each intraperitoneal administration, total 1.2 mg/kg) every 48 hours for 12 days (6 times total).

Compound: COc1cc(/C=C/C(=O)N2CCC=CC2=O)cc(OC)c1OC [piperlongumine, N-(3,4,5,-trimethoxycinnamoyl)-Δ^3-piperidine-2-one]
- CDIP expression [1]: induces the expression of CDIP
- luciferase activity of the CDIP promoter containing p53 binding site ([2]; 10 μM, U2OS cells): significantly increased
- composite Z value in the screen ([2]; among natural compound candidates, U2OS reporter cells): highest composite Z value
- tumor cell growth inhibition compared to known anti-cancer drugs ([3]; 0.1-30 μM, variety of human cancer cell lines): as well as or better than other well-known anti-cancer drugs
- cell growth ([3]; glioblastoma cell lines): inhibits cell growth
- cell growth ([3]; human melanoma and ovarian cancer cell lines): inhibits cell growth
- cell growth ([3]; human renal cancer cell lines): inhibits cell growth
- DNA damage (phosphorylated gamma-H2AX levels) [4]: results in the induction of DNA damage
- blood-vessel formation at the tumor sites [5]: did not show considerable blood-vessel formation
- expression of angiogenic marker VEGF (immunohistochemistry) ([5]; compared to vehicle): significantly reduced
- killing of lung cancer tumors [6]: effective killing
- anti-tumor effect [7]: significant anti-tumor effects
